Measurements as given in patent US4057684A, “Alkyl amino-glucopyranoside derivative and process for producing the same” (priority 1975, dated 1977).

Columns and labels:
[1] = test system: Nakahara-Fukuoka sarcoma (NFS); assay: antitumor effect against Nakahara-Fukuoka sarcoma (NFS) implanted in mice; type: in vivo, mouse (ICR)
From the text: (§1) Results of pharmacological studies for amino-glucopyranoside [I] according to the invention are described below. The test compounds which were used included methyl N-carbamyl-N'-(2-chloroethyl)-N'-nitroso-2-amino-2-deoxy-α-D-glucopyranoside and methyl N-carbamyl-N'-(2-chloroethyl)-N'-nitroso-6-amino-6-deoxy-α-D-glucopyranoside (hereinafter abbreviated to 2MCαG and 6MCαG, respectively). The control compounds which were employed were 1-(2-chloroethyl)-3-cyclohexyl-1-nitrosoourea (hereinafter abbreviated to CCNU), which had been widely applied as a control compound in such a pharmacological test of the streptozotocin derivatives, and GCNU referred to previously. The tumor systems which were used were leukemia L-1210, Nakahara-Fukuoka sarcoma, adenocarcinoma-755, ascites sarcoma 180 and Ehrlich ascites carcinoma (hereinafter abbreviated to L-1210, NFS, Ca-755, S-180A and EAC, respectively), and the antitumor activities were determined by a procedure of the National Cancer Center, Tokyo (A. Hoshi et al.: Farumashia 9, 464(1973)). The test animals which were used were ICR and BDF1 mice.
(§2) ^a Treatment was initiated 24 hr after implantation of tumor (day 1):
(§3) D1~5 = qd, day 1~5; D1 = day 1 only.
(§4) ^b T/C is expressed as the tumor weight ratio in solid tumors or tota
(§5) packed cell volume ratio in ascites tumors of treated/control.

[2] = test system: adenocarcinoma-755 (Ca-755); assay: antitumor effect against adenocarcinoma-755 (Ca-755) implanted in mice; type: in vivo, mouse (BDF1)
From the text: as §1, §2, §3, §4, §5

[3] = test system: ascites sarcoma 180 (S-180A); assay: antitumor effect against ascites sarcoma 180 (S-180A) implanted in mice; type: in vivo, mouse (ICR)
From the text: as §1, §2, §3, §4, §5

[4] = test system: Ehrlich ascites carcinoma (EAC); assay: antitumor effect against Ehrlich ascites carcinoma (EAC) implanted in mice; type: in vivo, mouse (ICR)
From the text: as §1, §2, §3, §4, §5

[5] = test system: leukemia L-1210; assay: increase in life span and survival of leukemia L-1210 implanted mice; type: in vivo, mouse (BDF1)
From the text: as §1, §2, §3
^d % increase in life span (mean survival time) over controls.
^e 60 days survivors/total in treated group.

[6] = peripheral white blood cell counts (bone marrow toxicity) and survival in normal male ICR mice; type: in vivo, mouse (ICR)
Method: Such peripheral white blood cell counts were performed as follows: Normal male ICR mice were used in groups of tens and the test compounds for treatment were made into their respective solutions. 2MCαG and 6MCαG were dissolved in physiological saline solutions, while CCNU and GCNU were suspended in 0.5% CMC aqueous solution and 50% PEG aqueous solution, respectively. A single administration at volume of 1 ml per 100 g body weight of animal (0.1 ml/10 g) was given intraperitoneally, and the peripheral white blood cell counts were performed 3, 8 and 15 days after administration of the test compounds.

[7] = blood sugar level / diabetogenic activity; type: in vivo, rat (male Wister); details: rat, in vivo
[8] = test system: bacteria; assay: antibacterial activity, broth dilution method
[9] = test system: solid as well as ascites tumor systems; assay: antitumor activity in the tumor systems (overall); type: in vivo, mouse; details: for antitumor activity compared with its α-anomer: vs α-anomer; for antitumor activity compared with the compounds of examples 1 and 4: mouse, in vivo
From the text: as §1

[10] = 12.5 mg/kg/day ip D1~5, ICR mice
[11] = 3.2 mg/kg/day ip, 5 successive days
[12] = 8.5 mg/kg/day ip, 5 successive days, BDF1 mice
[13] = 12.0 mg/kg/day ip D1~5, ICR mice
[14] = 20.0 mg/kg/day ip D1~5, ICR mice
[15] = 10.0 mg/kg/day ip D1~5, BDF1 mice
[16] = 25.0 mg/kg/day ip D1~5, BDF1 mice

## CO[C@@H]1O[C@H](CO)[C@@H](O)[C@H](O)[C@H]1NC(=O)N(CCCl)N=O [Example 4, methyl N-carbamyl-N'-(2-chloroethyl)-N'-nitroso-2-amino-2-deoxy-β-D-glucopyranoside]
[1]; [10]
  Activity: ++ or +++
[2]; 12.5 mg/kg/day ip D1~5, BDF1 mice
  Activity: ++ or +++
[3]; [11]
  accumulation of ascites tumor cells: ascites cells accumulation was not detectable
[3]; [10]
  Activity: ++ or +++
[4]; [11]
  accumulation of ascites tumor cells: ascites cells accumulation was not detectable
[4]; [10]
  Activity: ++ or +++
[5]; 3.2 mg/kg/day ip D1~5
  ILS: 480%
[5]; 6.3 mg/kg/day po D1~5
  ILS: 385%
[5]; single ip, 8~25 mg/kg
  60-days survivors: all six test animals surviving after 60-days
  ILS: 717%
[6]; LD10 dosage
  bone marrow toxicity, less than the α-anomer: 5~20%
[6]; LD10 dosage, 3, 8 and 15 days
  peripheral white blood cell count, higher than that of the α-anomer: 5~20%
[7]
  diabetogenic activity: not found to be either diabetogenic
[8]
  antibacterial activity: not found to be either diabetogenic or exhibited any antibacterial activities
[9]
  antitumor activity compared with its α-anomer: 110~120%

## CO[C@H]1O[C@H](CNC(=O)N(CCCl)N=O)[C@@H](O)[C@H](O)[C@H]1NC(=O)N(CCCl)N=O [Example 3]
[1]; [12]
  Activity: ++ or +++
[2]; [12]
  Activity: ++ or +++
[3]; [12]
  Activity: ++ or +++
[4]; [12]
  Activity: ++ or +++
[5]; 2.2 mg/kg/day ip, 5 successive days
  ILS: 400%
[5]; 4.5 mg/kg/day orally
  ILS: 370%
[5]; single ip, 7~15 mg/kg
  60-days survivors: all six animals tested survived
  ILS: 717%
[6]; mouse, in vivo
  bone marrow toxicity compared with CCNU: less than that of CCNU
  bone marrow toxicity compared with GCNU: comparable to GCNU
[7]
  diabetogenic activity: nondiabetogenic
[8]
  antibacterial activity: void of antibacterial activities

## O=NN(CCCl)C(=O)NC1CCCCC1 [CCNU, 1-(2-chloroethyl)-3-cyclohexyl-1-nitrosoourea, reference compound]
[1]; [13]
  Activity: + (70~51% = +)
  T/C: 57.5%
[1]; [14]
  Activity: ++ (50~21% = ++)
  T/C: 48.3%
[2]; [15]
  Activity: +++ (20~0% = +++)
  T/C: 15.0%
[2]; [16]
  Activity: Toxic
  T/C: 1.1%
  died/used: 6/6
[6]; 20 mg/kg ip single
  Death rate (death/used): 0/10
[6]; 20 mg/kg ip single, day 3
  Average count of WBC: 38.7±2.9 x 10^2 WBC/mm^3
[6]; 20 mg/kg ip single, day 8
  Average count of WBC: 81.8±5.0 x 10^2 WBC/mm^3
[6]; 20 mg/kg ip single, day 15
  Average count of WBC: 100.4±9.8 x 10^2 WBC/mm^3
[6]; 40 mg/kg ip single
  Death rate (death/used): 1/10
[6]; 40 mg/kg ip single, day 3
  Average count of WBC: 31.5±1.7 x 10^2 WBC/mm^3
[6]; 40 mg/kg ip single, day 8
  Average count of WBC: 59.0±6.0 x 10^2 WBC/mm^3
[6]; 40 mg/kg ip single, day 15
  Average count of WBC: 77.9±9.0 x 10^2 WBC/mm^3
[6]; 60 mg/kg ip single
  Death rate (death/used): 9/10
[6]; 60 mg/kg ip single, day 3
  Average count of WBC: 27.9±3.7 x 10^2 WBC/mm^3
[6]; 60 mg/kg ip single, day 8
  Average count of WBC: 60.0 x 10^2 WBC/mm^3
[6]; 60 mg/kg ip single, day 15
  Average count of WBC: 36.0 x 10^2 WBC/mm^3
[6]; 80 mg/kg ip single
  Death rate (death/used): 10/10
[6]; 80 mg/kg ip single, day 3
  Average count of WBC: 20.4±2.5 x 10^2 WBC/mm^3

## CO[C@@H]1O[C@H](CNC(=O)N(CCCl)N=O)[C@@H](O)[C@H](O)[C@H]1O [Example 12, methyl N-carbamyl-N'-(2-chloroethyl)-N'-nitroso-6-amino-6-deoxy-β-D-glucopyranoside]
[6]; vs α-anomer
  reduced bone marrow toxicity compared with its α-anomer: 110~120%
[7]
  diabetogenic activity: neither diabetogenic nor antibacterial activities
[8]
  antibacterial activity: neither diabetogenic nor antibacterial activities
[9]
  antitumor activity compared with its α-anomer: 110~120%

## CO[C@@H]1O[C@H](CNC(=O)N(CCCl)N=O)[C@@H](O)[C@H](O)[C@H]1NC(=O)N(CCCl)N=O [Example 7, methyl di-N,N'-[N-(2-chloroethyl)-N-nitroso-carbamyl]-2,6-di-amino-2,6-di-deoxy-3-D-glucopyranoside]
[6]; vs compound of example 3
  bone marrow toxicity compared with its α-anomer: reduced bone marrow toxicities
[7]
  diabetogenic activity: neither diabetogenic nor antibacterial activities
[8]
  antibacterial activity: neither diabetogenic nor antibacterial activities
[9]
  antitumor activity compared with its α-anomer: 5~20%

## CCCCO[C@@H]1O[C@H](CO)[C@@H](O)[C@H](O)[C@H]1NC(=O)N(CCCl)N=O [Example 9 3-anomer, n-butyl N-carbamyl-N'-(2-chloroethyl)-N'-nitroso-2-amino-2-deoxy-3-D-glucopyranoside]
[6]; mouse, in vivo
  bone marrow toxicity compared with the compounds of examples 1 and 4: same low levels
[7]
  diabetogenic activity: neither diabetogenic nor antibacterial activities
[8]
  antibacterial activity: neither diabetogenic nor antibacterial activities
[9]
  antitumor activity compared with the compounds of examples 1 and 4: same level of anitumor activity

## CCCCO[C@H]1O[C@H](CO)[C@@H](O)[C@H](O)[C@H]1NC(=O)N(CCCl)N=O [Example 9 α-anomer, n-butyl N-carbamyl-N'-(2-chloroethyl)-N'-nitroso-2-amino-2-deoxy-α-D-glucopyranoside]
[6]; mouse, in vivo
  bone marrow toxicity compared with the compounds of examples 1 and 4: same low levels
[7]
  diabetogenic activity: neither diabetogenic nor antibacterial activities
[8]
  antibacterial activity: neither diabetogenic nor antibacterial activities
[9]
  antitumor activity compared with the compounds of examples 1 and 4: same level of anitumor activity
